Test results: patent US20040092595A1, “Analgesic agent” (Seiwa Pharmaceuticals, Ltd., priority 2000, published 2004)

Assays:
[1] = test system: mice; assay: Analgesic, anti-inflammatory activity test (formalin test); assay type: in vivo; settings: male ICR mice, 1.0% formalin (20 μl injected), sample 40 mg/kg intraperitoneal, 15 min before stimulation, n=10, average value±standard error; for 1st phase response (0 to 10 min), licking time: control 121.33 ± 5.32; for 2nd phase response (10 to 30 min), licking time: control 183.51 ± 20.10
Experimental: An analgesic, anti-inflammatory activity test (the so-called “formalin test”) was carried out using samples 1 to 9 as test drugs.
A 1.0% formalin solution (20 μl) was injected as a stimulant into the hypoderm of the planta depis in the hind leg of mice (five-week-old male ICR mice which, after purchase, had been subjected to quarantine and acclimation for one week). An act of licking the hind leg by the mice for alleviating the pain was then successively measured with a stopwatch 5 min by 5 min for 30 min. In this case, for each of the test drugs (samples 1 to 9), a suspension corresponding to a dose of 40 mg/kg was prepared using an aqueous solution of 0.5% polyoxyethylene sorbitan monooleate (Tween 80; a product of Atlas). The suspension (100 μl) for each sample was intraperitoneally administered to the mice 15 min before the stimulation. For a control group, the same volume of 0.5% Tween 80 was intraperitoneally administered to the mice.
It is generally known that the formalin test as described above causes a biphasic response, that is, the following first-phase response and second-phase response.
The first-phase response refers to a response indicated by pain in a 0 to 10 min period after the stimulation with formalin, that is, a response indicated by pain caused by direct stimulation of the sensory nerve at its end upon the injection of formalin. At the present time, only narcotic analgesics such as morphine are known to have inhibitory activity against this first-phase response. On the other hand, the second-phase response refers to a response indicated by pain in a 10 to 30 min period after the stimulation with formalin, that is, a response indicated by pain attributable to inflammation caused upon the injection of formalin. This response can be inhibited by conventional analgesics such as aspirin.
The analgesic, anti-inflammatory activity was evaluated in two separate phases, a phase from 0 min to 10 min after the administration and a phase from 10 min to 30 min after the administration. For each of the phases, the total number of seconds for which the mouse licked the hind leg (licking time) was calculated, and this value was compared with the value for the control.

[2] = test system: rats; assay: Acute gastric ulcer test; assay type: in vivo
Experimental: An acute gastric ulcer test was carried out using sample 2 and indometacin as test drugs. […] By contrast, for sample 2, the same test was carried out, except that, instead of indometacin, sample 2 was orally administered at a dose of 10 to 300 mg/kg.

SMILES | 1st phase response (0 to 10 min), licking time [1] [s] | 2nd phase response (10 to 30 min), licking time [1] [s] | occurrence of a gastric ulcer ([2]; orally administered at a dose of not less than 50 mg/kg, seven hr after the administration) | occurrence of a gastric ulcer ([2]; orally administered at a dose of 10 to 300 mg/kg, same test as for indometacin)
COC(=O)C1C(c2ccc(O)cc2)C(C(=O)OC)C1c1ccc(O)cc1 (stereo not drawn) [Sample 8, dimethyl 4,4′-dihydroxy-α-truxillate] | 89.65 ± 4.67 | 122.70 ± 7.16 | – | –
COc1ccc2c(c1)c(CC(=O)O)c(C)n2C(=O)c1ccc(Cl)cc1 [indometacin, reference compound] | – | – | the occurrence of a gastric ulcer was clearly learned | –
O=C(O)C1C(c2ccc(O)cc2)C(C(=O)O)C1c1ccc(O)cc1 (stereo not drawn) [Sample 2, 4,4′-dihydroxy-α-truxillic acid] | 102.34 ± 4.09 | 7.12 ± 3.29 | – | an ulcer did not occur at all
O=C(O)C1C(C(=O)O)C(c2ccccc2)C1c1ccccc1 (stereo not drawn) [Sample 4, β-truxinic acid] | 59.40 ± 7.19 | 74.75 ± 11.94 | – | –
O=C(O)C1C(C(=O)O)C(c2ccc(Cl)cc2)C1c1ccc(Cl)cc1 (stereo not drawn) [Sample 6, 4,4′-dichloro-β-truxinic acid] | 59.37 ± 6.04 | 34.44 ± 9.13 | – | –
